In ChEMBL document CHEMBL1201862, “PubChem BioAssay data set” (2004):
Active and inactive are the calls of the source.

Tests used:
Streptokinase A = molecular target: T1, Streptokinase A (Streptococcus pyogenes serotype M1, UniProt P10520); experiment: S. pyogenes streptokinase expression inhibitors, potency, dose response, plasminogen activation absorbance, OD405 (AID 1914); assay type: functional, Streptococcus pyogenes M1 GAS;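 further: secreted streptokinase activity via plasminogen activation per viability signal from cell pellet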
T1 sequence (P10520 whole entry): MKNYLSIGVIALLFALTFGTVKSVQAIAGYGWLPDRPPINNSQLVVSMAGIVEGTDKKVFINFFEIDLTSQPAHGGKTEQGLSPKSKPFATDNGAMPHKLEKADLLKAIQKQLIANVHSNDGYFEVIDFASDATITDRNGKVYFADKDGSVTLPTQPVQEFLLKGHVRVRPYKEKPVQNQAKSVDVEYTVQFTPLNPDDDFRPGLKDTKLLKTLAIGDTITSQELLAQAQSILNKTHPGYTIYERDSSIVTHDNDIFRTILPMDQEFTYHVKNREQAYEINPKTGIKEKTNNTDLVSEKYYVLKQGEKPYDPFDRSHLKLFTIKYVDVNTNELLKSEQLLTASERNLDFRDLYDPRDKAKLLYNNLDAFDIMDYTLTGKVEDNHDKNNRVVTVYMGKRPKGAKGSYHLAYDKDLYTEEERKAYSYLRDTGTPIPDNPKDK

Streptococcus = experiment: Group A Streptococcus viability loss, dose response, counter-screen for streptokinase expression inhibitor project, luminescence, BacTiterGlo (AID 1915); assay type: functional, organism-based;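 further: potency for reduction of bacterial viability or growth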
[1] = system: Streptococcus sp. 'group A'; experiment: growth inhibition of control SK(-) GAS strain, dose response, counter-screen for streptokinase expression inhibitor project, luminescence, kanamycin, BacTiterGlo, confirmation (AID 1900); assay type: functional, organism-based
Large T antigen = Large T antigen (Simian virus 40, UniProt P03070); assay type: functional, Betapolyomavirus macacae;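 further: Confirmatory-stage PubChem screen for compounds that inhibit SV40 T antigen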
Chain of Large T antigen (P03070 whole entry): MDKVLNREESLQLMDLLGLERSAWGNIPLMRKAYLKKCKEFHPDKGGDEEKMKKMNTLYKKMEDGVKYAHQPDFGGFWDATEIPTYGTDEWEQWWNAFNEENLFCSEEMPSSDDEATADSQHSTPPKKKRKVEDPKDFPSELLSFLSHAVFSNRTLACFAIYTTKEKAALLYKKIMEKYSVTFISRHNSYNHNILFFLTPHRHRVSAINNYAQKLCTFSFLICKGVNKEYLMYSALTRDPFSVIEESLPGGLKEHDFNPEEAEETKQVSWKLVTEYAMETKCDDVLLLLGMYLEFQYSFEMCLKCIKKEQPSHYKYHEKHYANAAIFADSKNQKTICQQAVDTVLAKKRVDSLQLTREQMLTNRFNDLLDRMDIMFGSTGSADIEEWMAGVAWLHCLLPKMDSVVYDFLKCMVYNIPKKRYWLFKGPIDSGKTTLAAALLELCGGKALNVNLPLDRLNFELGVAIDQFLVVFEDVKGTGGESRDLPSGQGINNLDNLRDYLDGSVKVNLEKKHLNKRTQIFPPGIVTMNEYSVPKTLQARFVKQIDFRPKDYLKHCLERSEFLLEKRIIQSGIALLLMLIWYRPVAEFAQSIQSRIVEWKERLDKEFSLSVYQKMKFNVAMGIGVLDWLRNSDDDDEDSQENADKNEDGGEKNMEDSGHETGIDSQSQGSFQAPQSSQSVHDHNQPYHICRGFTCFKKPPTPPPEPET

Cytochrome P450 3A4 [2] = molecular target: T2, Cytochrome P450 3A4 (Homo sapiens, UniProt P08684); conditions: Potency
T2 sequence (P08684 whole entry): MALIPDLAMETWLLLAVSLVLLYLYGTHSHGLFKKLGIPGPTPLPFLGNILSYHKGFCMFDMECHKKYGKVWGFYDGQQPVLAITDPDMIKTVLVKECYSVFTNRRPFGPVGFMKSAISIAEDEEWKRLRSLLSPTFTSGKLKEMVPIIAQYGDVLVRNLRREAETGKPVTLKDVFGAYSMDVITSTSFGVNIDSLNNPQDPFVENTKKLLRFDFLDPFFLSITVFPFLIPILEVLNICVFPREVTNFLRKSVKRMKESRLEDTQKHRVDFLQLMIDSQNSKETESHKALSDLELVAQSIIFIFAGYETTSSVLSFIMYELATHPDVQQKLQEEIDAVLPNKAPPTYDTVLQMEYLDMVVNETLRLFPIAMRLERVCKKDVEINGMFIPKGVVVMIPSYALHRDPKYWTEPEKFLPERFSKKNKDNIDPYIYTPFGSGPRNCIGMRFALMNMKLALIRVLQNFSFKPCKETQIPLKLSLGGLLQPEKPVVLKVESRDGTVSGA

Cytochrome P450 3A4 [3] = molecular target: T2, Cytochrome P450 3A4
Cytochrome P450 1A2 = molecular target: T3, Cytochrome P450 1A2 (Homo sapiens, UniProt P05177);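 further: PubChem cytochrome P450 panel assay, CYP1A2 panel member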
T3 sequence (P05177 whole entry): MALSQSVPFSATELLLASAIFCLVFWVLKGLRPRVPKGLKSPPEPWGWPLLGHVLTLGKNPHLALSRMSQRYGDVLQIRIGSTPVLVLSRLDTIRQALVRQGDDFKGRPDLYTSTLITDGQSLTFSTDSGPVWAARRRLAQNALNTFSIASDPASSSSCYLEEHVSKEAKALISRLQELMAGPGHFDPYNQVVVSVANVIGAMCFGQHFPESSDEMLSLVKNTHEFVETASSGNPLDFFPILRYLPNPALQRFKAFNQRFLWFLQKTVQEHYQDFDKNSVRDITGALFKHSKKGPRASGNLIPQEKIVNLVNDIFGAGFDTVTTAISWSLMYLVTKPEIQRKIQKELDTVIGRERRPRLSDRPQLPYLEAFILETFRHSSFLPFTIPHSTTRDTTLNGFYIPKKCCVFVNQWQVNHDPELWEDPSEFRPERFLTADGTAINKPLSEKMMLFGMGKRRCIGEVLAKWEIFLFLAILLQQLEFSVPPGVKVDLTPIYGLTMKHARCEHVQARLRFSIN

Cytochrome P450 2C19 = Cytochrome P450 2C19 (Homo sapiens, UniProt P33261); experiment: Cytochrome panel assay with activity outcomes. Panel member name: p450-cyp2c19 Compounds with AC50 equal or less than 10 uM are considered active; assay type: functional; conditions: read-out: AC50
Chain of Cytochrome P450 2C19 (P33261 whole entry): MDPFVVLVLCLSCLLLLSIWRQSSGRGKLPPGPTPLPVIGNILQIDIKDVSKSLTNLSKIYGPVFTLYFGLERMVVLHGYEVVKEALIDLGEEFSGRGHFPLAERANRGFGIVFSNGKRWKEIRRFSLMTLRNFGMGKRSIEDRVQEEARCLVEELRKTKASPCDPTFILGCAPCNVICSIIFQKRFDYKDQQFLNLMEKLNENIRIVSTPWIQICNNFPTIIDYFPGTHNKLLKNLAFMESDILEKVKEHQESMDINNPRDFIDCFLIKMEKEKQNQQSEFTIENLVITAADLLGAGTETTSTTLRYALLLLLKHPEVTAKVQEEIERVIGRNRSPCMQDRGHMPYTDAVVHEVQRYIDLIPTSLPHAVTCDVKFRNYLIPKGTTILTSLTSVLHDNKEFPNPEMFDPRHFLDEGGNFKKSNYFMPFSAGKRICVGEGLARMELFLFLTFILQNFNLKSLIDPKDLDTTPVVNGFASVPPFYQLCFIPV

HEK293 = experiment: inhibitors of LMP1-driven NF-kB reporter, dose response, cell-based, HEK293, luciferase, cherry-pick (AID 588343); assay type: functional; conditions: Homo sapiens
[4] = molecular target: T4, RNA-binding protein pos-1 (Caenorhabditis elegans, UniProt G5EF15); experiment: inhibitors of POS-1/mex-3 RNA binding, dose response, biochemical, fluorescence polarization (AID 1964);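 further: purified POS-1 fused to maltose binding protein made in E. coli; potency of compounds blocking POS-1 binding to fluorescent RNA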
T4 sequence (G5EF15 whole entry): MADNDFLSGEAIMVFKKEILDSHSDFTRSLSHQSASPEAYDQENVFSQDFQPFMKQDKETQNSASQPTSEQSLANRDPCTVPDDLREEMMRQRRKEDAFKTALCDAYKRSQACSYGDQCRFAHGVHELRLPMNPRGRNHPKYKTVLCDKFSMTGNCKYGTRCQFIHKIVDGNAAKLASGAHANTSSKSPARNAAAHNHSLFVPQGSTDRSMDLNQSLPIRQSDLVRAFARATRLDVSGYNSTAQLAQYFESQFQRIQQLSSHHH

[5] = molecular target: T5, Zinc finger protein mex-5 (Caenorhabditis elegans, UniProt Q9XUB2); experiment: MEX-5/TCR-2 RNA interaction inhibitors, dose response, biochemical, C. elegans, fluorescence polarization (AID 1960)
T5 sequence (Q9XUB2 whole entry): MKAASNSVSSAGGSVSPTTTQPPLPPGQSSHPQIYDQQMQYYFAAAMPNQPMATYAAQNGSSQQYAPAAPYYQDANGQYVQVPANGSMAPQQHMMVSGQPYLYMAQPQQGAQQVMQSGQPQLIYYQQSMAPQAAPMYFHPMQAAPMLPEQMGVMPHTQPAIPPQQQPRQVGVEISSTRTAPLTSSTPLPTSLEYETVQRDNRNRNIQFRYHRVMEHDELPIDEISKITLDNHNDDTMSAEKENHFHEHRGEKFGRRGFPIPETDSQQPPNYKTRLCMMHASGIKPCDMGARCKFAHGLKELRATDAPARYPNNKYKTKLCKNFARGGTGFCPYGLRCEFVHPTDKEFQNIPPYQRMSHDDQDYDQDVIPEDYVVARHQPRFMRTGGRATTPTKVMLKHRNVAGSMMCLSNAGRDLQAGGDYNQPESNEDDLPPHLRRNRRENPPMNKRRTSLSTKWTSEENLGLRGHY

[6] = molecular target: T6, Rac GTPase-activating protein 1 (Homo sapiens, UniProt Q9H0H5); experiment: MgcRacGAP GTPase-activating activity inhibitors, confirmation, biochemical, ADP Hunter fluorescence, primary and confirmatory (AID 624330); assay type: functional
T6 sequence (Q9H0H5 whole entry): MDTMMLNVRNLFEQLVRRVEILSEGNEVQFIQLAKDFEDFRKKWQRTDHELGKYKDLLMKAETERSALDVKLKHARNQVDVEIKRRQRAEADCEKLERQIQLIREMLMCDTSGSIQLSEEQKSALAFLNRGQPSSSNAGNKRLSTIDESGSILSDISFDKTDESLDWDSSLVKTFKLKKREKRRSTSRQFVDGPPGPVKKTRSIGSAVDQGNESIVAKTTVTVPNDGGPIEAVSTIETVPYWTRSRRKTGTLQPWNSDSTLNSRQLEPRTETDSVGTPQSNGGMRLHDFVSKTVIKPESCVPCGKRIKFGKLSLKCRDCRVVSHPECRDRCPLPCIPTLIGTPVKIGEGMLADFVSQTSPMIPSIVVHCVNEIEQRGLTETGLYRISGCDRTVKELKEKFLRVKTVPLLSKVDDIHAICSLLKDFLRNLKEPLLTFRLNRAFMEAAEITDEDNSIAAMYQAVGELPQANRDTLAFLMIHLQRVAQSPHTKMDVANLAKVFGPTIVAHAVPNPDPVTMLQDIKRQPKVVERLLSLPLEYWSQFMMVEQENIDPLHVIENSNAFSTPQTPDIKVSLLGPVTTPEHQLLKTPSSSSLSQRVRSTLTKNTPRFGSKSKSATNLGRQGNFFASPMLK

[7] = HepG2 cell cytotoxicity, dose response, cytotoxicity control for Shn3 inhibitor project, CellTiter-Glo, cherry-picked (AID 624134); assay type: functional, cell-based
[8] = Shn3 3'UTR reporter inhibitors, dose response, cell-based, Clone20 osteoblasts, firefly luciferase, cherry-picked (AID 624132); assay type: functional;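 further: firefly luciferase luminescence from reporter carrying the Shn3 3'UTR in osteoblasts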
[9] = control 3'UTR Renilla luciferase suppression, dose response, counter-screen for Shn3 inhibitor project, cell-based, Clone20-Shn3RL, cherry-picked (AID 624133); assay type: functional
[10] = growth suppression of beta-catenin-knockout colon cells, dose response, cell-based, HCT116, human colon tumor (AID 1045); assay type: functional;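 further: HCT116 colon tumor cells with beta catenin knocked out; cells exposed to compound for 60 hours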
Paired box protein Pax-8 = Paired box protein Pax-8 (Homo sapiens, UniProt Q06710); experiment: inhibitors of PAX8-driven TPO luciferase reporter, dose response, RMG-I cells, cherry-pick (AID 687027); assay type: functional, cell-based;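 further: luciferase reporter driven by Pax8 target thyroperoxidase promoter measured by SteadyGlo luminescence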
Chain of Paired box protein Pax-8 (Q06710 whole entry): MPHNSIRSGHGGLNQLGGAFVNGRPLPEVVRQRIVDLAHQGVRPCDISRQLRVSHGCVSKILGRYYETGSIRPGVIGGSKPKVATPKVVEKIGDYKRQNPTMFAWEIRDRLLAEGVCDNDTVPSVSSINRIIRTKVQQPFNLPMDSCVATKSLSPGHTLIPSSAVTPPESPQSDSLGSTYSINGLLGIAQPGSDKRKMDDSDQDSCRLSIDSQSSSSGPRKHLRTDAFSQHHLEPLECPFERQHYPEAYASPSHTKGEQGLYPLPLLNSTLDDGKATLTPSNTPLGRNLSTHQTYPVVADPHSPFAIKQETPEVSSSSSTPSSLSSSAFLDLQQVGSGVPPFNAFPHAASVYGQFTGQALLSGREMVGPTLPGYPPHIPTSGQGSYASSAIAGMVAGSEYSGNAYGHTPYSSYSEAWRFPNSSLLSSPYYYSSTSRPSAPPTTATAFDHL

[11] = growth suppression of PTEN-null colon cells, dose response, cell-based, HCT116 PTEN knockout (AID 1047); assay type: functional;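 further: HCT116 colon tumor cells with PTEN knocked out; cells exposed to compound for 60 hours before readout; potency for loss of cell viability measured by luminescence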
[12] = Luminescence Cell-Based Dose Retest to Confirm Inhibitors of Cancer Stem Cells. [Related pubchem assays (depositor defined):AID2717, AID2721]; assay type: functional; conditions: Homo sapiens
INS1 = experiment: beta cell apoptosis inhibitors, cytokine rescue, dose response, luminescence, retest (AID 449756); assay type: functional, cell-based; conditions: Rattus norvegicus;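 further: cell death triggered by IL-1 beta plus TNF-alpha plus IFN-gamma mixture; protective hits raise ATP signal compared with cytokine alone wells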

With `CC(=O)O[C@H]1C[C@@]2(C)[C@@H](C[C@@H](O)[C@H]3[C@@]4(C)CC[C@@H](O)[C@@H](C)C4CC[C@@]32C)/C1=C(\CCC=C(C)C)C(=O)O` (some centres undefined) the EC50 (Streptokinase A) was 1.78 µM (active), the EC50 (Streptococcus) was 13.7 µM (active) and the EC50 [1] was 2.26 µM (active). For the same compound, the IC50 (Large T antigen) was 24.7 µM (active).
In the case of `N#Cc1ccc(C23CC4(C2)[C@H](CN(Cc2ccc(-c5ccccc5)cc2)[C@@H]4c2ccccc2)C3c2ccccc2)cc1` (some centres undefined), the AC50 (Cytochrome P450 3A4 [2]) is reported as 15.8 µM (inconclusive).
For `CC(=O)NNC(=O)N1Cc2ccccc2Oc2ccc(Cl)cc21`, the AC50 (Cytochrome P450 3A4 [3]) was 20 µM (inconclusive), the AC50 (Cytochrome P450 1A2) was 31.6 µM (inconclusive) and the AC50 (Cytochrome P450 3A4 [2]) was 12.6 µM (inconclusive). The AC50 (Cytochrome P450 2C19) was 5.01 µM (inconclusive).
For `O=C(NCCc1ccccc1)c1ccccc1Cl`, the AC50 (HEK293) was 3.98 µM (active).
With `CC1(OC(=O)CCc2ccccc2)C(=O)C=C2C=C(c3ccsc3)OC=C2C1=O` (centres undefined) the EC50 [4] was 49.7 µM (active) and the EC50 [5] was 28.2 µM (active).
With `CCOc1cc(/C=C2/N=C(C)C(C(=O)OC)=C2O)ccc1O` the IC50 [6] was 26.3 µM (active) and the IC50 (Large T antigen) was 5.78 µM (active).
For `Cc1ccc2oc(=O)c3c4cc(O)c(O)c(C)c4oc3c2c1`, the AC50 (Cytochrome P450 3A4 [2]) was 12.6 µM (inconclusive).
For `O=C(Nc1cccc(C(F)(F)F)c1)Nc1ccc(N2CCCC2)c(S(=O)(=O)Nc2ccccc2Cl)c1`, the AC50 [7] was 5.53 µM (active), the AC50 [8] was 4.42 µM (active) and the AC50 [9] was 5.49 µM (active). The EC50 [10] was 4.39 µM (active), the AC50 (Paired box protein Pax-8) was 6.41 µM (active) and the EC50 [11] was 3.89 µM (active). The AC50 [12] was 0.848 µM (active) and the AC50 (INS1) was 3.57 µM (active).
With `CCOC(=O)COn1c(=O)c(-c2cc3ccccc3o2)[n+]([O-])c2ccccc21` the EC50 [4] was > 300 µM (not active) and the EC50 [5] was 27.6 µM (active).
With `CCCCNC(=O)C(c1ccc(OCC(=O)OC)c(C(=O)OC)c1)N(CCC1=CCCCC1)C(=O)CCCCCN1C(=O)NC(c2ccc(-c3ccccc3)cc2)C(C(=O)OCc2ccccc2)=C1C` (centres undefined) the AC50 (Cytochrome P450 3A4 [2]) was 2.51 µM (inconclusive).
With `COc1cccc(/C=N/Nc2ncnc(N)c2[N+](=O)[O-])c1OC` the AC50 (HEK293) was 3.91 µM (active), the EC50 [4] was 18.4 µM (active) and the EC50 [5] was > 300 µM (inconclusive).
